Results from patent publication US20260250250A1, “3-(SULPHONYL OR SULFONIMIDOYL)PROP-2-EN-1-YL]-2-OXO-1,2-DIHYDROPYRIDINE-3-CARBOXAMIDE DERIVATIVES” (Flinder Therapeutics B.V., priority 2022, published 2026).

Experiments:
[1] = molecular target: T1, human E3 ubiquitin-protein ligase RNF31 (HOIP) (Homo sapiens, UniProt Q96EP0); test: Cell-free HTRF-based HOIP inhibition assay; assay type: biochemical
T1 sequence (Q96EP0 695-1072 limits assumed): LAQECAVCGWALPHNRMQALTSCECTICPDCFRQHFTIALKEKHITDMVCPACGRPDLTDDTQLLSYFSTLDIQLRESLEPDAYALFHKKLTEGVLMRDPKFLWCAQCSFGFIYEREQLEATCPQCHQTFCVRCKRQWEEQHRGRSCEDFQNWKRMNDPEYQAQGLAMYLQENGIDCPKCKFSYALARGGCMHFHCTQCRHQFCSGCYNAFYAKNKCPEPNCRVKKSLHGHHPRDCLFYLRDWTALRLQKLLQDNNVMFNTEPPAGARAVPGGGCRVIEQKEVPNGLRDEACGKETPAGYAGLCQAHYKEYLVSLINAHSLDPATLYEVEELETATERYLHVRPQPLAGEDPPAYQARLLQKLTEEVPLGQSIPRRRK
How it was run: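 Recombinant human HOIP fragment (E. coli) preincubated with compounds (100-0.005 μM, 1% DMSO) and E1 for 1 h at 25° C. E2 and substrates then added; reaction 2.5 h at 25° C. HTRF read-out, excitation 337 nm, emissions 665/620 nm.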

NF-κB signaling pathway = test: Cell-based dual luciferase NF-κB reporter assay (HEK293 cells, TNF stimulated); settings: Homo sapiens, HEK293
How it was run: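 HEK293 cells transfected with Firefly luciferase and NF-κB-response-element NanoLuc plasmids; compounds at 100–0.005 µM in 1% DMSO. Cells stimulated with 2.5 ng/mL TNF 30 min after compound addition. Firefly and NanoLuc activities read after 6 h by Nano-Glo dual-luciferase detection.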

[2] = system: bladder carcinoma RT4 cell line; test: TNF-α-induced cytotoxicity assay (CellTiter-Glo viability); assay type: cell-based; settings: Homo sapiens, RT-4, 72 h
How it was run: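 RT4 bladder carcinoma cells, 1000 per well, stimulated with 1.25 ng/mL TNFα together with compound for 72 h at 37° C., 5% CO2. Viability read by CellTiter-Glo luminescence, proportional to cellular ATP, as a measure of HOIP-dependent cytotoxicity.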

SMILES | IC50 [1] [nM] | IC50 (NF-κB signaling pathway) [nM] | IC50 [2] [nM]
Cc1ccc(S(=O)(=O)/C=C/CNC(=O)c2cc3c([nH]c2=O)CCCC3)cc1C [Example 51, N-[(2E)-3-(3,4-dimethylbenzenesulfonyl)prop-2-en-1-yl]-2-oxo-1,2,5,6,7,8-hexahydroquinoline-3-carboxamide] | ≤ 1000 | ≤ 1000 | ≤ 1000
O=C(NC/C=C/S(=O)(=O)c1ccccc1Cl)c1cc2c([nH]c1=O)CCCC2 [Example 41, N-[(2E)-3-(2-chlorobenzenesulfonyl)prop-2-en-1-yl]-2-oxo-1,2,5,6,7,8-hexahydroquinoline-3-carboxamide] | ≤ 100 | ≤ 1000 | ≤ 1000
O=C(NC/C=C\S(=O)(=O)c1ccccc1)c1cc2c([nH]c1=O)CCCC2 [Example 9, N-[(2Z)-3-(benzenesulfonyl)prop-2-en-1-yl]-2-oxo-1,2,5,6,7,8-hexahydroquinoline-3-carboxamide] | ≤ 1000 | ≤ 10000 | ≤ 10000
O=C(NC/C=C/S(=O)(=O)c1ccc(F)cc1F)c1cc2c([nH]c1=O)CCCC2 [Example 31, N-[(2E)-3-(2,4-difluorobenzenesulfonyl)prop-2-en-1-yl]-2-oxo-1,2,5,6,7,8-hexahydroquinoline-3-carboxamide] | ≤ 100 | ≤ 1000 | ≤ 1000
COc1ccc(S(=O)(=O)/C=C/CNC(=O)c2cc3c([nH]c2=O)CCCC3)cc1 [Example 40, N-[(2E)-3-(4-methoxybenzenesulfonyl)prop-2-en-1-yl]-2-oxo-1,2,5,6,7,8-hexahydroquinoline-3-carboxamide] | ≤ 1000 | ≤ 1000 | ≤ 1000
O=C(NC/C=C/S(=O)(=O)c1ccc(F)cc1)c1cc2c([nH]c1=O)CCCC2 [Example 16, N-[(2E)-3-(4-fluorobenzenesulfonyl)prop-2-en-1-yl]-2-oxo-1,2,5,6,7,8-hexahydroquinoline-3-carboxamide] | ≤ 100 | ≤ 1000 | ≤ 1000
Cc1ccc(S(=N)(=O)/C=C/CNC(=O)c2cc3c([nH]c2=O)CCCC3)cc1C (stereo not drawn) [Example 58, N-[(2E)-3-[(3,4-dimethylphenyl)(imino)oxo-λ^6-sulfanyl]prop-2-en-1-yl]-2-oxo-1,2,5,6,7,8-hexahydroquinoline-3-carboxamide] | ≤ 100 | ≤ 1000 | ≤ 1000
O=C(NC/C=C/S(=O)(=O)c1ccc(Cl)cc1)c1cc2c([nH]c1=O)CCCCC2 [Example 36, N-[(2E)-3-(4-chlorobenzenesulfonyl)prop-2-en-1-yl]-2-oxo-1H,2H,5H,6H,7H,8H,9H-cyclohepta[b]pyridine-3-carboxamide] | ≤ 1000 | ≤ 100000 | ≤ 10000
O=C(NC/C=C/S(=O)(=O)c1ccccc1)c1cc2c([nH]c1=O)CCN(C(=O)OC1CCC3(CC1)COC3)C2 [Example 79, 2-Oxaspiro[3.5]nonan-7-vi 3-{[(2E)-3-(benzenesulfonyl)prop-2-en-1-yl]carbamoyl}-2-oxo-1,2,5,6,7,8-hexahydro-1,6-naphthyridine-6-carboxylate] | ≤ 100 | ≤ 10000 | ≤ 10000
COc1ccc(S(=N)(=O)/C=C/CNC(=O)c2cc3c([nH]c2=O)CCCC3)cc1OC (stereo not drawn) [Example 52, N-[(2E)-3-[(3,4-dimethoxyphenyl)(imino)oxo-λ^6-sulfanyl]prop-2-en-1-yl]-2-oxo-1,2,5,6,7,8-hexahydroquinoline-3-carboxamide] | ≤ 1000 | ≤ 10000 | ≤ 1000
O=C(NC/C=C/S(=O)(=O)c1ccc(C2CC2)cc1)c1cc2c([nH]c1=O)CCCC2 [Example 55, N-[(2E)-3-(4-cyclopropylbenzenesulfonyl)prop-2-en-1-yl]-2-oxo-1,2,5,6,7,8-hexahydroquinoline-3-carboxamide] | ≤ 100 | ≤ 1000 | ≤ 1000
CO[C@H]1CC[C@H](C(=O)N2CCc3[nH]c(=O)c(C(=O)NC/C=C/S(=O)(=O)c4ccccc4)cc3C2)CC1 [Example 107, N-[(2E)-3-(benzenesulfonyl)prop-2-en-1-yl]-2-oxo-6-[(1r,4r)-4-methoxycyclohexanecarbonyl]-1,2,5,6,7,8-hexahydro-1,6-naphthyridine-3-carboxamide] | ≤ 1000 | ≤ 100000 | ≤ 100000
O=C(NC/C=C/S(=O)(=O)c1ccc(Cl)cc1)c1cc2c([nH]c1=O)CCN(C(=O)OCC1CC1)C2 [Example 88, cyclopropylmethyl 3-{[(2E)-3-(4-chlorobenzenesulfonyl)prop-2-en-1-yl]carbamoyl}-2-oxo-1,2,5,6,7,8-hexahydro-1,6-naphthyridine-6-carboxylate] | ≤ 100 | ≤ 1000 | ≤ 1000
O=C(NC/C=C/S(=O)(=O)c1ccc(F)cc1)c1cc2c([nH]c1=O)CCCCC2 [Example 35, N-[(2E)-3-(4-fluorobenzenesulfonyl)prop-2-en-1-yl]-2-oxo-1H,2H,5H,6H,7H,8H,9H-cyclohepta[b]pyridine-3-carboxamide] | ≤ 1000 | ≤ 1000 | ≤ 10000
COc1cccc(S(=N)(=O)/C=C/CNC(=O)c2cc3c([nH]c2=O)CCCC3)c1 (stereo not drawn) [Example 64, N-[(2E)-3-[imino(3-methoxyphenyl)oxo-λ^6-sulfanyl]prop-2-en-1-yl]-2-oxo-1,2,5,6,7,8-hexahydroquinoline-3-carboxamide] | ≤ 1000 | ≤ 1000 | ≤ 1000
O=C(NC/C=C/S(=O)(=O)c1ccccc1)c1cc2c([nH]c1=O)CCN(C(=O)OC1COC1)C2 [Example 67, oxetan-3-yl 3-{[(2E)-3-(benzenesulfonyl)prop-2-en-1-yl]carbamoyl}-2-oxo-1,2,5,6,7,8-hexahydro-1,6-naphthyridine-6-carboxylate] | ≤ 1000 | ≤ 10000 | ≤ 100000

Further lines, with some results ahead:

IC50 [1] [nM] | IC50 (NF-κB signaling pathway) [nM] | SMILES | IC50 [2] [nM]
≤ 100 | ≤ 10000 | COc1ccc(S(=N)(=O)/C=C/CNC(=O)c2cc3c([nH]c2=O)CCN(C(=O)OCCF)C3)cc1F (stereo not drawn) [Example 180, 2-fluoroethyl 3-{[(2E)-3-[(3-fluoro-4-methoxyphenyl)(imino)oxo-λ^6-sulfanyl]prop-2-en-1-yl]carbamoyl}-2-oxo-1,2,5,6,7,8-hexahydro-1,6-naphthyridine-6-carboxylate] | ≤ 10000
≤ 1000 | ≤ 10000 | CC12CC(C(=O)N3CCc4[nH]c(=O)c(C(=O)NC/C=C/S(=O)(=O)c5ccccc5)cc4C3)(C1)C2 [Example 114, N-[(2E)-3-(benzenesulfonyl)prop-2-en-1-yl]-6-{3-methylbicyclo[1.1.1]pentane-1-carbonyl}-2-oxo-1,2,5,6,7,8-hexahydro-1,6-naphthyridine-3-carboxamide] | ≤ 100000
≤ 1000 | ≤ 100000 | COc1ccc(S(=N)(=O)/C=C/CNC(=O)c2cc3c([nH]c2=O)CCOC3)cc1F (stereo not drawn) [Example 145, N-[(2E)-3-[(3-fluoro-4-methoxyphenyl)(imino)oxo-λ^6-sulfanyl]prop-2-en-1-yl]-2-oxo-1H,2H,5H,7H,8H-pyrano[4,3-b]pyridine-3-carboxamide] | ≤ 10000
≤ 1000 | ≤ 1000 | N=S(=O)(/C=C/CNC(=O)c1cc2c([nH]c1=O)CCCC2)c1cccc(Cl)c1 (stereo not drawn) [Example 134, N-[(2E)-3-[(3-chlorophenyl)(imino)oxo-λ^6-sulfanyl]prop-2-en-1-yl]-2-oxo-1,2,5,6,7,8-hexahydroquinoline-3-carboxamide] | ≤ 1000
≤ 1000 | ≤ 10000 | O=C(NC/C=C/S(=O)(=O)c1ccccc1)c1cc2c([nH]c1=O)CCN(C(=O)C13CCC(CC1)C3)C2 [Example 110, N-[(2E)-3-(benzenesulfonyl)prop-2-en-1-yl]-6-{bicyclo[2.2.1]heptane-1-carbonyl}-2-oxo-1,2,5,6,7,8-hexahydro-1,6-naphthyridine-3-carboxamide] | ≤ 10000
≤ 1000 | ≤ 100000 | O=C(NC/C=C/S(=O)(=O)c1ccccc1)c1cc2c([nH]c1=O)CCN(C(=O)C1CCOC1)C2 (stereo not drawn) [Example 113, N-[(2E)-3-(benzenesulfonyl)prop-2-en-1-yl]-2-oxo-6-(oxolane-3-carbonyl)-1,2,5,6,7,8-hexahydro-1,6-naphthyridine-3-carboxamide] | ≤ 100000
≤ 1000 | ≤ 1000 | N=S(=O)(/C=C/CNC(=O)c1cc2c([nH]c1=O)CCCC2)c1ccccc1F (stereo not drawn) [Example 132, N-[(2E)-3-[(2-fluorophenyl)(imino)oxo-λ^6-sulfanyl]prop-2-en-1-yl]-2-oxo-1,2,5,6,7,8-hexahydroquinoline-3-carboxamide] | ≤ 10000
≤ 1000 | ≤ 10000 | COc1ccc(S(=N)(=O)/C=C/CNC(=O)c2cc3c([nH]c2=O)CCC(OC)C3)cc1F (stereo not drawn) [Example 169, N-[(2E)-3-[(3-fluoro-4-methoxyphenyl)(imino)oxo-λ^6-sulfanyl]prop-2-en-1-yl]-6-methoxy-2-oxo-1,2,5,6,7,8-hexahydroquinoline-3-carboxamide] | ≤ 10000
